Patent US20090264342A1, “COMPOSITIONS AND METHODS FOR ANTIBIOTIC POTENTIATION AND DRUG DISCOVERY” (priority 2006, published 2009)

System: E. coli MG1655
Experiment: Hydroxyl radical formation (HPF dye, flow cytometry) in E. coli
Assay type: cell-based
Details: E. coli; 250 ng/mL norfloxacin, 5 μg/mL ampicillin, 5 μg/mL kanamycin; bacteriostatic drugs; 3 hours after addition
Description: Growth Conditions. In the experiments, the growth and survival of untreated exponential phase E. coli, or S. aureus, were compared to cultured treated with antibiotics at the above concentrations. E. coli cultures were treated with norfloxacin, kanamycin, ampicillin, rifamycin SV, chloramphenical, tetracycline, erythromycin, or spectinomycin, where appropriate, S. aureus cultures were treated with norfloxacin, vancomycin or chloramphenical, where appropriate.
Hydroxyl radical and DNA damage sensor experiments using the flow cytometer. To monitor the occurrence of DNA damage, the engineered DNA damage sensor was used, which responds to auto-cleavage of LexA by activating expression of gfpmut3b. All the drug treatments and the no-drug controls were collected with both the kanamycin- and ampicillin-resistant version of the plasmid, with the exception of the ampicillin treatment (kanamycin plasmid only) and the kanamycin treatment (ampicillin plasmid only). All data were collected using a Becton Dickinson FACSCalibur flow cytometer (Becton Dickinson, San Jose, Calif.) with a 488-nm argon laser and a 515- to 545-nm emission filter (FL1) at low flow rate. The following PMT voltage settings were used: E00 (FSC), 360 (SSC) and 700 (FL1). To detect hydroxyl radical formation, the fluorescent reporter dye, 3′-(p-hydroxyphenyl) fluorescein (HPF, Invitrogen, Carlsbad, Calif.) was used at a concentration of 5 μM (1:1000) dilution), which is oxidized by hydroxyl radicals with high specificity. The following PMT voltage settings were used: E00 (FSC), 360 (SSC) and 825 (FL 1). Calibrite beads (Becton Dickinson) were used for instrument calibration.
Flow data were processed and analyzed with MATLAB (MathWorks, Natick, Mass.) to construct figures. At least 50,000 cells were collected for each sample. In all experiments, cells were grown as described above. Samples were taken immediately before addition of drug (time zero), then every hour for 3 hours. At each timepoint, approximately […] were collected, washed once and resuspended in filtered 1×PBS, pH 7.2 (Fisher Scientific), and fluorescence was measured on the flow cytometer.
In the present study, the Applicants chose to investigate whether hydroxyl radical formation also contributes to antibiotic-induced cell death in bacteria. Using the dye hydroxyphenyl fluorescein, HPF, which is oxidized by hydroxyl radicals with high specificity, hydroxyl radical formation was first observed over a range of hydrogen peroxide concentrations known to induce hydroxyl radicals through the reduction of hydrogen peroxide by ferrous iron. In this manner, it was possible to establish the scale of hydroxyl radical formation detectable using this dye via flow cytometry.

Q: With `CCn1cc(C(=O)O)c(=O)c2cc(F)c(N3CCNCC3)cc21` [Nor, norfloxacin] as the molecule, how does the hydroxyl radical formation read?
A: induce hydroxyl radical formation
